Experimental data taken from ChEMBL document CHEMBL4706528, “The design, synthesis and anti-tumor mechanism study of new androgen receptor degrader” (Eur J Med Chem, 2020).
The source made the active and inactive calls. The rule behind the calls is not given here.

Assays:
[1] = tested on: LNCaP; test: Antiproliferative activity against androgen-positive human LNCaP cells assessed as cell growth inhibition measured after 72 hrs by SRB assay; type: functional, cell-based
[2] = tested on: GES1; test: Cytotoxicity against androgen-negative human GES1 cells assessed as cell growth inhibition measured after 72 hrs by SRB assay; type: cell-based; conditions: GES1, 72 h
[3] = biological target: T1, Androgen receptor (Homo sapiens) (UniProt P10275); test: Selective androgen receptor degradation activity at androgen receptor in human LNCaP cells assessed as down regulation of protein level at 10 uM after 24 hrs by Western blot analysis; type: cell-based
T1 sequence (whole entry): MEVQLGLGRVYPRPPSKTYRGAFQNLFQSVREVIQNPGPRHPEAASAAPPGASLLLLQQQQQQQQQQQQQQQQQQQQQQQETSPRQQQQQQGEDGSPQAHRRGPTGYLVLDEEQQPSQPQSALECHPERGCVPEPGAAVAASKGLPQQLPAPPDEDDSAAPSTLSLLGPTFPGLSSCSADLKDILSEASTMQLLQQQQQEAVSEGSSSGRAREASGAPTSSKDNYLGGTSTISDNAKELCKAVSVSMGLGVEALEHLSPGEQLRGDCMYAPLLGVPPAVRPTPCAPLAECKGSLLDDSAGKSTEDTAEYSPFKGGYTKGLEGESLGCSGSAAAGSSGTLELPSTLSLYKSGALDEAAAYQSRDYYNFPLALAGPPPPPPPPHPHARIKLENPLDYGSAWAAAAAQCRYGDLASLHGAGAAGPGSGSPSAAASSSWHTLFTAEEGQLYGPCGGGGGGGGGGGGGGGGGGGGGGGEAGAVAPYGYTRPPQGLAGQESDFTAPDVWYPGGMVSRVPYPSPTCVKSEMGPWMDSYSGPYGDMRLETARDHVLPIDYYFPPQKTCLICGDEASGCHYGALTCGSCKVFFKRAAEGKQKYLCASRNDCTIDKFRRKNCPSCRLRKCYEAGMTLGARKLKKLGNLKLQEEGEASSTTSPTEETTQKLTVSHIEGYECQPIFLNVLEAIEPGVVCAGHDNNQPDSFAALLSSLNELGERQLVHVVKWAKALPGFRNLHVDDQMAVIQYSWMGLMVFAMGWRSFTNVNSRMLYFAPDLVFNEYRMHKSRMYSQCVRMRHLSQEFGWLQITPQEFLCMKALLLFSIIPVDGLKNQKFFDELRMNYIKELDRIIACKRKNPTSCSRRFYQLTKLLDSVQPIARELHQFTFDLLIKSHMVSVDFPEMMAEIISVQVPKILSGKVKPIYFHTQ

[4] = biological target: Prostate-specific antigen (Homo sapiens) (UniProt P07288); test: Induction of downregulation of PSA (unknown orgin) human LNCaP cells at 1 uM after 24 hrs by Western blot analysis
[5] = tested on: LNCaP; test: Induction of apoptosis in human LNCaP cells assessed as late apoptotic cells level at 1 micromol/L incubated for 24 hrs by Annexin V/PI staining staining based flow cytometry (reference value: 0.940%); type: functional; conditions: dose 1 µmol/L, at 1 µM
[6] = biological target: T1, Androgen receptor (Homo sapiens); test: Selective androgen receptor degradation activity at androgen receptor in human LNCaP cells assessed as down regulation of protein level at 10 uM after 24 hrs in presence of E-64 by Western blot analysis; type: cell-based
[7] = biological target: Transmembrane protease serine 2 (Homo sapiens) (UniProt O15393); test: Induction of downregulation of TMPRSS2 (unknown orgin) human LNCaP cells at 2 uM after 24 hrs by Western blot analysis
[8] = biological target: T1, Androgen receptor (Homo sapiens); test: Selective androgen receptor degradation activity at androgen receptor in human LNCaP cells assessed as down regulation of protein level at 10 uM after 72 hrs by Western blot analysis; type: cell-based
[9] = tested on: LNCaP; test: Induction of cell cycle arrest in human LNCaP cells assessed as accumulation at G1 phase at 2 micromol/L after 24 hrs by RNase A/PI-staining based flow cytometric analysis (reference value: 47.99%); type: functional; conditions: dose 2 µmol/L, at 2 µM
[10] = biological target: Transmembrane protease serine 2 (Homo sapiens) (UniProt O15393); test: Induction of downregulation of TMPRSS2 (unknown orgin) human LNCaP cells at 1 uM after 24 hrs by Western blot analysis
[11] = tested on: LNCaP; test: Induction of apoptosis in human LNCaP cells assessed as early apoptotic cells level at 2 micromol/L incubated for 24 hrs by Annexin V/PI staining staining based flow cytometry (reference value: 2.09%); type: functional; conditions: dose 2 µmol/L, at 2 µM
[12] = tested on: LNCaP; test: Induction of cell cycle arrest in human LNCaP cells assessed as accumulation at G2 phase at 10 micromol/L after 24 hrs by RNase A/PI-staining based flow cytometric analysis (reference value: 20.87%); type: functional; conditions: dose 10 µmol/L, at 10 µM
[13] = tested on: LNCaP; test: Induction of cell cycle arrest in human LNCaP cells assessed as accumulation at S phase at 1 micromol/L after 24 hrs by RNase A/PI-staining based flow cytometric analysis (reference value: 20.69%); type: functional; conditions: dose 1 µmol/L, at 1 µM
[14] = tested on: LNCaP; test: Induction of apoptosis in human LNCaP cells assessed as early apoptotic cells level at 1 micromol/L incubated for 24 hrs by Annexin V/PI staining staining based flow cytometry (reference value: 2.09%); type: functional; conditions: dose 1 µmol/L, at 1 µM
[15] = tested on: LNCaP; test: Induction of cell cycle arrest in human LNCaP cells assessed as accumulation at G2 phase at 2 micromol/L after 24 hrs by RNase A/PI-staining based flow cytometric analysis (reference value: 20.87%); type: functional; conditions: dose 2 µmol/L, at 2 µM
[16] = tested on: LNCaP; test: Induction of apoptosis in human LNCaP cells assessed as early apoptotic cells level at 10 micromol/L incubated for 24 hrs by Annexin V/PI staining staining based flow cytometry (reference value: 2.09%); type: functional; conditions: dose 10 µmol/L, at 10 µM
[17] = tested on: LNCaP; test: Induction of apoptosis in human LNCaP cells assessed as total apoptotic cells at 10 uM incubated for 24 hrs by Annexin V/PI staining staining based flow cytometry (reference value: 2.76%); type: functional
[18] = tested on: LNCaP; test: Induction of apoptosis in human LNCaP cells assessed as necrotic cells level at 2 micromol/L incubated for 24 hrs by Annexin V/PI staining staining based flow cytometry (reference value: 0.694%); type: functional; conditions: dose 2 µmol/L, at 2 µM
[19] = biological target: Transmembrane protease serine 2 (Homo sapiens) (UniProt O15393); test: Induction of downregulation of TMPRSS2 (unknown orgin) human LNCaP cells at 10 uM after 24 hrs by Western blot analysis
[20] = tested on: LNCaP; test: Induction of apoptosis in human LNCaP cells assessed as necrotic cells level at 10 micromol/L incubated for 24 hrs by Annexin V/PI staining staining based flow cytometry (reference value: 0.694%); type: functional; conditions: dose 10 µmol/L, at 10 µM
[21] = tested on: LNCaP; test: Induction of cell cycle arrest in human LNCaP cells assessed as accumulation at G2 phase at 1 micromol/L after 24 hrs by RNase A/PI-staining based flow cytometric analysis (reference value: 20.87%); type: functional; conditions: dose 1 µmol/L, at 1 µM
[22] = biological target: Prostate-specific antigen (Homo sapiens) (UniProt P07288); test: Induction of downregulation of PSA (unknown orgin) human LNCaP cells at 10 uM after 24 hrs by Western blot analysis
[23] = biological target: T1, Androgen receptor (Homo sapiens); test: Binding affinity to androgen receptor LBD (unknown origin) at 10 uM incubated for 4 hrs under dark by fluorescence polarization based binding assay relative to R1881
[24] = biological target: T1, Androgen receptor (Homo sapiens); test: Selective androgen receptor degradation activity at androgen receptor in human LNCaP cells assessed as down regulation of protein level at 10 uM after 24 hrs in presence of MG132 by Western blot analysis; type: cell-based

Sequence of Transmembrane protease serine 2 (Homo sapiens) (O15393 1-255 limits assumed): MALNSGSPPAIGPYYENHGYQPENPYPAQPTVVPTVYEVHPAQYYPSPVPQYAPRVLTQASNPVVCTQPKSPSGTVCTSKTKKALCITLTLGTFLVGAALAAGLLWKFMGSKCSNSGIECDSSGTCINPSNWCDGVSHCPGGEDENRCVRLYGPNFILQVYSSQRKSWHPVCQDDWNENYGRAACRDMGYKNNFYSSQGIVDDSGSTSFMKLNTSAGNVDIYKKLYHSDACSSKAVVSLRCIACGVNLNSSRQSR
Sequence of Transmembrane protease serine 2 (Homo sapiens) (O15393 256-492 limits assumed): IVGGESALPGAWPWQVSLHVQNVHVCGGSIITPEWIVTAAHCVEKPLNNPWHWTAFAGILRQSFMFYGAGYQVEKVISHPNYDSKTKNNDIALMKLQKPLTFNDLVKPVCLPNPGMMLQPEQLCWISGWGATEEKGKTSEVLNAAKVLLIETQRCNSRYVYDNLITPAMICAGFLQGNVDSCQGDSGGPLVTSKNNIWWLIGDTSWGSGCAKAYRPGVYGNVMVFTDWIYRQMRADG
Sequence of Prostate-specific antigen (Homo sapiens) (P07288 whole entry, looked up, the tested form may be a part): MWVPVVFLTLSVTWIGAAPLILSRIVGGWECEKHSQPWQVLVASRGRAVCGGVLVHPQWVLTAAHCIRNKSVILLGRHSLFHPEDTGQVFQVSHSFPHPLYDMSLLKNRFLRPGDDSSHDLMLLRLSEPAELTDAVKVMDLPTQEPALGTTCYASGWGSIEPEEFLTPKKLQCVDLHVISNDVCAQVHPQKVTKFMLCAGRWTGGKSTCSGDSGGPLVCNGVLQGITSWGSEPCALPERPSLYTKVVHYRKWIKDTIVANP

Structure (SMILES): CC1(C)C(=O)N(c2ccc(C#N)c(C(F)(F)F)c2)C(=S)N1CCCCCn1cc(COCCOCCOC(=O)CC23CC4CC(CC(C4)C2)C3)nn1
- IC50 [1]: 1750 nM
- IC50 [2]: > 80000 nM
- Activity [3]: Active
- Activity [4]: Active
- Activity [5]: 1.59%
- Activity [6]: Active
- Activity [7]: Active
- Activity [8]: Active
- Activity [9]: 67.54%
- Activity [10]: Active
- Activity [11]: 1.56%
- Activity [12]: 6.4%
- Activity [13]: 19.84%
- Activity [14]: 1.56%
- Activity [15]: 8.9%
- Activity [16]: 14.4%
- Activity [17]: 19.22%
- Activity [18]: 0.774%
- Activity [19]: Active
- Activity [20]: 0.024%
- Activity [21]: 20.07%
- Activity [22]: Active
- Activity [23]: 85.3%
- Activity [24]: Active
